# Values of other authors in patent US20080214876A1, “Process for Preparation of Pharmaceutically Pure Anhydrous Calcipotriol” (INSTYTUT FARMACEUTYCZNY, priority 2004, published 2008).
# Columns and labels:
# calcium metabolism = conditions: rats; relative to calcitriol; Binderup, Bramm, Biochem. Pharmacol. 37, 889 (1988)
# [1] = pharmaceutical formulations
# epidermal keratinocytes = conditions: literature: Castelijins et al., Acta Derm. Venereol. 79, 111 (1999)
weaker effect on calcium metabolism compared to calcitriol (calcium metabolism),stability in some solutions [1],SMILES,activity in inhibiting undesirable proliferation of epidermal keratinocytes (epidermal keratinocytes)
100-200 fold,poor stability,"C=C1/C(=C\C=C2/CCC[C@]3(C)[C@@H]([C@H](C)/C=C/[C@@H](O)C4CC4)CC[C@@H]23)C[C@@H](O)C[C@@H]1O [calcipotriol, (1α,3β3,5Z,7E,22E,24S)-24-cyclopropyl-9,10-secochola-5,7,10(19),22-tetraene-1,3,24-triol]",strong activity
–,–,"C=C1/C(=C\C=C2/CCC[C@]3(C)[C@@H]([C@H](C)CCCC(C)(C)O)CC[C@@H]23)C[C@@H](O)C[C@@H]1O [calcitriol, 1,25-dihydroxycholecalciferol]",strong activity
–,–,"C=C1/C(=C\C=C2/CCC[C@]3(C)[C@@H]([C@H](C)CC[C@@H](O)C(C)C)CC[C@@H]23)C[C@@H](O)C[C@@H]1O [tacalcitol, 1α,24R-dihydroxycholecalciferol]",strong activity
